The values below come from patent US8206920B2, “Diagnostic assay for the specific treatment of acute myeloid leukemia” (priority 2007, dated 2012).

The subject of one test is ND13 GFP cells. Put plainly: Proliferation of cell cultures of transduced ND13 cells expressing GFP with ATRA (FIG. 3). It counts as cell-based, mouse. As to conditions: 0.1 μM or 1 μM ATRA, p=0.026 at 24 hours, p<0.001 at 48, 72 and 96 h. The text has this:
(§1) The expression vector encoding GFP contained to the GFP gene under control of the spleen focus-forming virus promoter, integrated into the vector pSF91 (described in detail in Hildinger et al., J. Virol. 73, 4083-4089 (1999)). The MN1 expression vector contained the human MN1 gene under the control of the same promoter in the same vector backbone.

A further test concerns ND13 MN1 cells. The experiment in a line: Proliferation of cell cultures of transduced ND13 cells expressing MN1 with ATRA (FIG. 3). It counts as cell-based, mouse. To be noted: 0.1 μM or 1 μM ATRA, up to 96 h.
Source text: as §1

For the compound `CC1=C(/C=C/C(C)=C/C=C/C(C)=C/C(=O)O)C(C)(C)CCC1` [ATRA, all-trans retinoic acid], the “proliferation (cell numbers)” value in the test with ND13 GFP cells was “significant reduction of proliferation”; with ND13 MN1 cells, “no significant reduction of proliferation”.
